Cc1cc(=O)oc2cc(N)ccc12
solubility (mole fraction)
Conditions | 278.15 K | 283.15 K | 288.15 K | 293.15 K | 298.15 K | 303.15 K | 308.15 K | 313.15 K | 318.15 K | 323.15 K
in DMF | 0.0579 | 0.0725 | 0.0902 | 0.108 | 0.131 | 0.156 | 0.189 | 0.219 | 0.251 | 0.292
in ethanol | 0.000941 | 0.00101 | 0.00117 | 0.00123 | 0.00134 | 0.00161 | 0.00177 | 0.00214 | 0.00233 | 0.00262
in ethylene glycol | 0.000384 | 0.000432 | 0.000531 | 0.000663 | 0.000812 | 0.000974 | 0.00112 | 0.0013 | 0.00145 | 0.00163
in isopropanol | 0.00103 | 0.00114 | 0.00127 | 0.00152 | 0.00173 | 0.00188 | 0.00208 | 0.00237 | 0.00261 | 0.00294
in water | 1.07e-05 | 1.38e-05 | 1.74e-05 | 2.18e-05 | 2.75e-05 | 3.41e-05 | 4.18e-05 | 5.14e-05 | 6.27e-05 | 7.57e-05

— BigSolDB 2.1
